Like-named read-outs stand apart in the source and are kept apart here.
Assays:
[1] = cited from earlier work
[2] = system: wild-type (non-protease inhibitor-resistant) virus; conditions: cited from earlier work
[3] = human, in vivo, 24 h
Method: (§1) Plasma samples were frozen and stored at – 80 °C until analysis.
(§2) Addition of elvitegravir and cobicistat to the method was partly validated, including selectivity, linearity, accuracy and recovery, inter- and intra-run repeatability, and stability.
(§3) Elvitegravir and cobicistat concentrations were compared to historical controls.

[4] = clinical; conditions: human, in vivo, Elvitegravir Ctrough,ss, individual patients
Method: as §1, §2, §3

[5] = 60 subjects, darunavir 800 mg/cobicistat 150 mg with two NRTIs
[6] = population PK data for E/C/F/TDF, n = 419

## CC(C)OC(=O)[C@H](C)N[P@](=O)(CO[C@H](C)Cn1cnc2c(N)ncnc21)Oc1ccccc1 [TAF, tenofovir alafenamide]
[1]; PK substudy of E/C/F/TAF plus darunavir switch study
  Plasma concentrations of TAF: at the lower end of the efficacious range

## COC(=O)N[C@H](C(=O)N[C@@H](Cc1ccccc1)[C@@H](O)CN(Cc1ccc(-c2ccccn2)cc1)NC(=O)[C@@H](NC(=O)OC)C(C)(C)C)C(C)(C)C [atazanavir]
[1]; human, in vivo
  Effect of coadministration with elvitegravir/cobicistat on atazanavir trough levels: significant lowering of atazanavir trough levels

## CC(C)c1nc(CN(C)C(=O)N[C@@H](CCN2CCOCC2)C(=O)N[C@H](CC[C@H](Cc2ccccc2)NC(=O)OCc2cncs2)Cc2ccccc2)cs1 [cobicistat]
[1]; 59 HIV-infected patients, darunavir/cobicistat with emtricitabine and tenofovir DF
  Cobicistat 24-h level, mean: 33 ng/mL
[1]; [5]
  Cobicistat C0h, mean: 76 ng/mL
  Cobicistat Cmax, mean: 991 ng/mL
  Cobicistat tmax, median: 3.5 h
[1]; patients taking E/C/F/TDF with darunavir
  Cobicistat 24-h concentration, mean: 20.2 ng/mL

## CC(C)CN(C[C@@H](O)[C@H](Cc1ccccc1)NC(=O)O[C@H]1CO[C@H]2OCC[C@H]21)S(=O)(=O)c1ccc(N)cc1 [darunavir]
[2]; wild-type (non-protease inhibitor-resistant) virus
  Half maximal effective concentration (EC50): 0.055 µg/mL
[2]; wild-type virus
  Protein-adjusted 50% inhibitory concentration (IC50): 0.055 µg/mL
[1]; [5]
  Darunavir Cmax, mean: 7663 ng/mL
  Darunavir tmax, median: 3.5 h

## COc1cc2c(cc1Cc1cccc(Cl)c1F)c(=O)c(C(=O)O)cn2[C@H](CO)C(C)C [elvitegravir]
[3]
  Elvitegravir Ctrough,ss relative to protein-adjusted IC95 (45 ng/mL): more than 2 fold
  Elvitegravir Ctrough,ss, individual patients: 82 ng/mL
[2]; wild type virus
  Protein-adjusted 95% inhibitory concentration (IC95): 0.045 µg/mL
[4]
  concentration at 24 h: < 80 ng/mL
[1]; E/C/F/TAF + DRV, N 15
  Elvitegravir Ctrough,ss, mean: 464 ng/mL
[1]; E/C/F/TDF + DRV, N 24
  Elvitegravir Ctrough,ss, mean: 234 ng/mL
[1]; E/C/F/TDF without darunavir, N 32
  Elvitegravir Ctrough,ss, mean: 250 ng/mL
[1]; E/C/F/TDF without darunavir, N 419, population pharmacokinetic estimate
  Elvitegravir Ctrough,ss, mean: 451 ng/mL
[1]; [6]
  Elvitegravir Cmax, mean: 1731 ng/mL
  Elvitegravir tmax: 4.0 h

Source: publication PMC5669010 (AIDS Research and Therapy, 2017)
